# Activity calls are given as the source filed them. The calls are words filed in the database; no cut-off is given here.
# Molecular target: Hydroxycarboxylic acid receptor 3 (Homo sapiens) (UniProt P49019)
# Experiment: Agonist activity at human cloned GPR109b receptor at 100 uM by forskolin-stimulated cAMP production test
# Assay type: functional
# Hydroxycarboxylic acid receptor 3 (Homo sapiens), sequence (P49019 whole entry): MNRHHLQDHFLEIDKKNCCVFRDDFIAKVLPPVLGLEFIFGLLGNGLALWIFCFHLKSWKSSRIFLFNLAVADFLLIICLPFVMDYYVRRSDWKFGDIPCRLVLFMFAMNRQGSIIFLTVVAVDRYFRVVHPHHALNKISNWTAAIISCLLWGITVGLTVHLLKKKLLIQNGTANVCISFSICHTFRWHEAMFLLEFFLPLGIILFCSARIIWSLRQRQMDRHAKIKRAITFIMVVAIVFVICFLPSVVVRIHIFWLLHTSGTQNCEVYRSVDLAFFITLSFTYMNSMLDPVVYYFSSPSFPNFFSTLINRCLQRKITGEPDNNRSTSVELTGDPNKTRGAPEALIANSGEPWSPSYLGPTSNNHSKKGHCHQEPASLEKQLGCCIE
smiles,measurement,value
Cc1cc(C(=O)O)n[nH]1,Activity,inactive

# Reference: ChEMBL document CHEMBL1140673, “Agonist lead identification for the high affinity niacin receptor GPR109a” (Bioorg Med Chem Lett, 2007)
